Source: patent publication US20110123530A1, “COMPOSITIONS AND METHODS FOR TREATING AND DIAGNOSING ASTHMA” (priority 2008, published 2011)

Legend:
[1] = tested on: healthy and asthmatic subjects; test: Bronchodilator reversibility testing: improvement in FEV1 after albuterol; format: in vivo, human; conditions: 4 puffs (360 μg) of albuterol, mean ± SD
Procedure: (§1) (A) Volume of air exhaled in the first second of a forced expiration (FEV1), a measure of airway obstruction. (B) Improvement in FEV1 after 4 puffs (360 μg) of albuterol (bronchodilator reversibility testing). (C) Provocative concentration of methacholine required to induce a 20% decline in FEV1 (PC20), a measure of airway hyper-responsiveness.
For the purposes of identifying subsets of patients with asthma who differ with respect to the molecular mechanism underlying their airway inflammation and the distinct inflammatory, pathological and clinical phenotypes characteristic of these subsets, we first conducted new analyses on our previously generated epithelial cell microarray data, and we then supplemented these new analyses with review of additional and detailed clinical characterization data (including data on bronchodilator reversibility and allergen skin test reactivity) from these same subjects and newly generated data, including: (i) gene expression profiles in homogenates of bronchial biopsies and alveolar macrophages; (ii) quantitative measures of subepithelial collagen and airway epithelial mucin in bronchial biopsies; (iii) total and differential cell counts in BAL.
(§2) The asthmatic subjects were further analyzed with respect to additional demographic characteristics and clinical features as those described in Example 7. […] This difference in AHR was apparent despite inclusion criteria that required all asthmatics to have significant AHR (all asthmatics <8 mg/ml, all healthy controls >20 mg/ml).

[2] = tested on: healthy and asthmatic subjects; test: Methacholine challenge testing (PC20, airway hyper-responsiveness); format: in vivo, human; conditions: median
Procedure: as §1
Healthy controls (N=27) had no history of lung disease and lacked airway hyper-responsiveness (PC20 methacholine >16 mg/mL). Certain studies included current smokers without asthma (N=16). Exclusion criteria for all subjects included upper respiratory tract infection in the previous 4 weeks, asthma exacerbation within 6 weeks and current use of salmeterol, astemizole, nedocromil sodium, sodium cromoglycate, methlyxanthines, montelukast or zafirlukast. Subjects underwent baseline evaluation by study physicians (including spirometry and methacholine challenge testing as described previously). Subjects also underwent allergen skin prick testing (ASPT) with a panel of 12 aeroallergens, a positive control and a negative control (Table 6).
The minimal concentration of methacholine in mg/ml required to induce a decrease in FEV1 of 20% (PC20, measured at a screening visit one week prior to bronchoscopy) is a measure of bronchial hyperresponsiveness. This is a measure of bronchial hyper-reactivity (BHR).
as §2

## CC(C)(C)NCC(O)c1ccc(O)c(CO)c1 (stereo not drawn) [albuterol]
[1]; Healthy Control
  ΔFEV1 with albuterol (% of baseline): 2.7 ± 3.4% of baseline
[1]; asthma, IL13 Signature Low
  ΔFEV1 with albuterol (% of baseline): 9.7 ± 7.4% of baseline
[1]; asthma, IL-13 Signature High
  ΔFEV1 with albuterol (% of baseline): 12.5 ± 9.8 % of baseline

## CC(=O)OC(C)C[N+](C)(C)C (stereo not drawn) [Methacholine, methacholine]
[2]; Healthy Control
  Methacholine PC20 (provocative concentration required to cause a 20% decline in FEV1): 64 mg/mL
[2]; asthma, IL13 Signature Low
  Methacholine PC20 (provocative concentration required to cause a 20% decline in FEV1): 0.93 mg/mL
[2]; asthma, IL-13 Signature High
  Methacholine PC20 (provocative concentration required to cause a 20% decline in FEV1): 0.27 mg/mL
